# Values of other authors in patent publication US9512402B2, “Compositions for the preparation of mature dendritic cells” (Helmholtz Zentrum Munchen Deutsches Forschungszentrum fur …, priority 2006, dated 2016).
# System: mature DCs
# Settings: DCs matured only with IFNα; Frankenberger 2005
substance,measurement,value
IFNα,EGFP protein expression following RNA transfer,failed to express EGFP protein
